14 compounds from patent US5084462A, “4-quinoline carboxylic acid derivatives useful as immunosuppressive agents” (The Du Pont Merck Pharmaceutical Company, priority 1990, dated 1992) can be followed below.

Series [1] relates to contact sensitivity response to 2,4-dinitrofluorobenzene (DNFB). The experiment in a line: Contact sensitivity response to 2,4-dinitrofluorobenzene (DNFB) in mice. Particulars: for inhibition in vivo at 1 mg/kg: 1.0 mg/kg oral. The class given is in vivo, Balb/c female mice. As to the method: This is an antigen-specific T-cell mediated inflammatory response that represents delayed-type hypersensitivity reactions seen in both humans and other mammals.
Balb/c female mice (.perspectiveto.20g, Charles River) were sensitized on the shaved abdomen with 25 μl of 0.5% 2,4-dinitrofluorobenzene ([…], Eastman Kodak Co.) in a vehicle of 4:1 acetone:olive oil on days 0 and 1. Mice were ear challenged with 20 μl of 0.2% DNFB in a vehicle of 4:1 acetone:olive oil on day 5. A constant area of the ears was measured immediately before challenge and 24 hours later with an engineer's micrometer. Ear swelling was expressed as the difference in ear thickness before and after challenge in units of 10^-4 inches±SEM. Percent suppression was calculated as: [formula] […] Negative controls were not sensitized on days 0 and 1 but were ear challenged on day 5. Ten mice were used per group.

For series [2], the system named is human mixed lymphocyte reaction. The experiment in a line: Human mixed lymphocyte reaction (3H-thymidine incorporation). It counts as cell-based. Particulars: Table 4, human PBMC of two donors, 6 days. An excerpt:
Contact sensitivity to DNFB has teen extensively studied and characterized in the mouse to determine the regulatory mechanisms involved in cell mediated immune responses (Claman, et al., Immunol Rev 50:105, 1980). This is an antigen-specific T-cell mediated inflammatory response that represents delayed-type hypersensitivity reactions seen in both humans and other mammals. The primary use of the human mixed lymphocyte reaction is for the determination of transplantation compatibility between the donor (graft) and the recipient (Park and Good, p. 71. In Yunis, et al., Tissue typing and organ transplantation. 1973 Academic Press Inc., N.Y.).
Blood was obtained by venipuncture from two nonrelated human donors. Peripheral blood mononuclear cells (PBMC) were isolated from these samples by using the Leuco Prep procedure (Becton-Dickinson). PBMC were washed twice in phosphate buffered saline (without calcium and magnesium) and the separate cell isolations were adjusted to the appropriate concentrations in media (RPMI 1640) supplemented with 10% human AB serum and […] gentamicin. Cells from donor A (2×10^5) were incubated with cells from donor B (2×10^5) in 96 well round bottom microliter plates at 37° C., 5% CO2 for 6 days. Eighteen hours prior to harvesting cells from the plates, all wells were pulsed with 1 μCi of ^3 H-thymidine. Cells from the plates were harvested on day 6 and ^3 H-thymidine incorporation was determined using a scintillation counter.

Series [3] concerns adjuvant-induced arthritis. Put plainly: Adjuvant-induced arthritis in rats. The class given is in vivo, Male Lewis rats. Particulars: for Non-Injected Hind-Paw Volume / % Suppression: day 18; for % Suppression: Table 5, non-injected hind paw. The method, then: Rat adjuvant-induced arthritis represents a systemic inflammatory disease with bone and cartilage changes similar to that observed in rheumatoid arthritis, but in an accelerated time span (Pearson, Arth Rheum 7:80, 1964).
Male Lewis rats (Charles River) weighing 160-210 grams were injected subcutaneously with 0.1 ml of Freund's Complete Adjuvant containing 5 mg of M. butyricum/ml of paraffin oil (Difco Laboratories) into the plantar region of the right hind paw. Paraffin oil was injected for non-arthritic controls. Ten rats were used per group. Compounds were prepared in 0.25% Methocel® (Dow Chemical Co) with one drop of Tween® 80 per 10 ml of Methocel®. Animals were dosed every day beginning on the day of paw injection until day 18. The weight of each animal was recorded every other day beginning on the day of the paw injections. On day 18 the animals were weighed, and the non-injected hind paw volume was measured using a Ugo Basile Volume Differential Plethysmometer.

Where [4] appears, read: Mus musculus, po, 24 h, Table 2, ear swelling, 10.0 mg/kg oral, read-out: % Suppression.
Where [5] appears, read: Mus musculus, po, 24 h, Table 3, ear swelling, 20.0 mg/kg oral, read-out: % Suppression.
The mark [6] stands for this setting: Mus musculus, Table 2, suppression of ear swelling, oral, days -2 through 6, read-out: ED50.

Like-named read-outs stand apart in the source and are kept apart here.

As for `Cc1c(-c2ccc(Sc3ccccc3)cc2)nc2ccc(Cl)cc2c1C(=O)O` [Example 8], the “Ear Swelling (units ± SEM), increase in ear thickness from day 5 to day 6” value (“Ear Swelling (units ± SEM), increase” below) in series [1] (Table 3, 20.0 mg/kg oral) is given as 63.25 ± 3.58 10^-4 inches. The “% Suppression” value in series [1] (Table 3, ear swelling, 20.0 mg/kg oral, 20 mg/kg) amounted to 13.98%.
In general, ED50 refers to the dose at which the effect has come halfway, by size or by number of responders. A word on the IC50: it is the concentration needed to halve the response being measured. A low value points to higher potency. In the case of `CN(Cc1cnc2nc(N)nc(N)c2n1)c1ccc(C(=O)N[C@@H](CCC(=O)O)C(=O)O)cc1` [Methotrexate, reference compound], the inhibition in vivo at 0.4 mg/kg in series [1] (Mus musculus, po, 24 h, Table 2, ear swelling, 0.4 mg/kg oral, read-out: % Suppression) was 3.83%. The inhibition in vivo at 2 mg/kg in series [1] (Mus musculus, po, 24 h, Table 2, ear swelling, 2.0 mg/kg oral, read-out: % Suppression) turned out to be 18.1%. For the same compound, the inhibition in vivo at 10 mg/kg in series [1] (setting [4]) was determined as 51.8%. The inhibition in vivo at 20 mg/kg is 63.6% in series [1] (Mus musculus, po, 24 h, Table 2, ear swelling, 20.0 mg/kg oral, read-out: % Suppression) and 79.7% in series [1] (setting [5]). The ED50 in series [1] (setting [6]) amounted to 9 mg/kg. Moreover, the “Ear Swelling (units ± SEM), increase” value in series [1] (Table 2, 0.4 mg/kg oral) is listed as 71.30 ± 2.96 10^-4 inches; in series [1] (Table 2, 2.0 mg/kg oral) it was 60.80 ± 1.99 10^-4 inches; in series [1] (Table 2, 10.0 mg/kg oral), 36.10 ± 3.23 10^-4 inches; in series [1] (Table 2, 20.0 mg/kg oral) it was 27.45 ± 4.99 10^-4 inches; in series [1] (Table 3, 20.0 mg/kg oral) it was 16.94 ± 2.10 10^-4 inches. Moreover, inhibition in series [2] was half-maximal at 2.5 nM (IC50).
Regarding `COc1c(-c2ccc(-c3ccccc3)cc2)nc2ccc(F)cc2c1C(=O)O` [Example 11], in series [1] (setting [5]), the inhibition in vivo at 20 mg/kg amounted to 74.1%. Moreover, the “Ear Swelling (units ± SEM), increase” value in series [1] (Table 3, 20.0 mg/kg oral) is listed as 20.85 ± 2.53 10^-4 inches.
As to `Cc1c(-c2ccc(SC(C)C)cc2)nc2ccc(F)cc2c1C(=O)O` [Example 6], the inhibition in vivo at 20 mg/kg in series [1] (setting [5]) worked out at 21.1%. The “Ear Swelling (units ± SEM), increase” value in series [1] (Table 3, 20.0 mg/kg oral) is reported as 58.20 ± 4.63 10^-4 inches.
On to `Cc1c(-c2ccc(-c3ccccc3F)cc2)nc2ccc(F)cc2c1C(=O)[O-].[Na+]` [Example 2, Sodium 2-(2'-Fluoro-1,1'-biphenyl-4-yl)-6-fluoro-3-methylquinoline-4-carboxylate], for which the ED50 in series [1] (Mus musculus, po) is 0.95 mg/kg; in series [3] (Rattus norvegicus, 432 h, Table 5 footnote, adjuvant-induced arthritis), < 10 mg/kg. Further, the inhibition in vivo at 0.4 mg/kg in series [1] (Mus musculus, po, 24 h, read-out: % Suppression, Table 2, ear swelling, 0.4 mg/kg oral) is 30.2%. Besides, the inhibition in vivo at 2 mg/kg in series [1] (Mus musculus, po, 24 h, read-out: % Suppression, Table 2, ear swelling, 2.0 mg/kg oral) worked out at 66.1%. For the same compound, the inhibition in vivo at 10 mg/kg in series [1] (Mus musculus, po, 24 h, read-out: % Suppression, Table 2, ear swelling, 10.0 mg/kg oral) stood at 92.3%. Further, the inhibition in vivo at 20 mg/kg in series [1] (Mus musculus, po, 24 h, read-out: % Suppression, Table 2, ear swelling, 20.0 mg/kg oral) amounted to 94.5%. The “Ear Swelling (units ± SEM), increase” value is 51.95 ± 2.33 10^-4 inches in series [1] (Table 2, 0.4 mg/kg oral); 25.61 ± 3.39 10^-4 inches in series [1] (Table 2, 2.0 mg/kg oral); 6.40 ± 1.09 10^-4 inches in series [1] (Table 2, 10.0 mg/kg oral); 4.75 ± 1.20 10^-4 inches in series [1] (Table 2, 20.0 mg/kg oral). In series [2], this compound came in with an IC50 of 25 nM. Also, the “Weight Gain” value is -1.5 ± 3.6 g in series [3] (Table 5, 2.0 mg/kg daily to day 18) and 65.6 ± 5.2 g in series [3] (Table 5, 10 mg/kg daily to day 18). Also, the “Non-Injected Hind-Paw Volume” value amounted to 1.62 ± 0.05 mL in series [3] (Table 5, 2.0 mg/kg daily) and 1.15 ± 0.02 mL in series [3] (Table 5, 10 mg/kg daily). Besides, the “% Suppression” value was found to be 34.5% in series [3] (2.0 mg/kg daily) and 96.2% in series [3] (10 mg/kg daily). In addition, the Toxicity result in series [3] (Table 5 footnote, 25.0 mg/kg daily) is listed as “Toxic by day 7”.
Regarding `Cc1c(-c2ccc(-c3ccc(O)cc3)cc2)nc2ccc(Cl)cc2c1C(=O)O` [Example 12], in series [1] (setting [5]), the inhibition in vivo at 20 mg/kg came to 26.3%. The “Ear Swelling (units ± SEM), increase” value in series [1] (Table 3, 20.0 mg/kg oral) is 54.58 ± 3.21 10^-4 inches.
Taken in the same sequence, the figures for `Cc1c(-c2ccc(-c3ccc(Br)cc3)cc2)nc2ccc(F)cc2c1C(=O)O` [Example 4] were 87% and 11.80 ± 1.03 10^-4 inches.
For the compound `C[C@@H]1C[C@H]2[C@@H]3CCC4=CC(=O)C=C[C@]4(C)[C@@]3(F)[C@@H](O)C[C@]2(C)[C@@]1(O)C(=O)CO` [Dexamethasone, reference compound], the inhibition in vivo at 0.2 mg/kg in series [1] (Mus musculus, po, 24 h, Table 2, ear swelling, 0.2 mg/kg oral, read-out: % Suppression) amounted to 28.8%. The inhibition in vivo at 1 mg/kg in series [1] (Mus musculus, po, 24 h, Table 2, ear swelling, read-out: % Suppression) was 44.3%; in series [1] (Mus musculus, po, 24 h, Table 3, ear swelling, read-out: % Suppression) it was 43.8%. In addition, in series [1] (Mus musculus, po, 24 h, Table 2, ear swelling, 5.0 mg/kg oral, read-out: % Suppression), the inhibition in vivo at 5 mg/kg worked out at 68.6%. In series [1] (setting [4]), the inhibition in vivo at 10 mg/kg was 79.9%. Besides, the median effective dose (ED50) in series [1] (setting [6]) is 1.5 mg/kg. The “Ear Swelling (units ± SEM), increase” value is listed as 52.95 ± 3.39 10^-4 inches in series [1] (Table 2, 0.2 mg/kg oral); 41.60 ± 2.46 10^-4 inches in series [1] (Table 2, 1.0 mg/kg oral); 23.79 ± 2.71 10^-4 inches in series [1] (Table 2, 5.0 mg/kg oral); 15.50 ± 2.10 10^-4 inches in series [1] (Table 2, 10.0 mg/kg oral); 42.20 ± 2.61 10^-4 inches in series [1] (Table 3, 1.0 mg/kg oral).
With `Cc1c(-c2ccc(Oc3ccccc3)cc2)nc2ccc(F)cc2c1C(=O)O` [Example 3], in series [1] (setting [5]), the inhibition in vivo at 20 mg/kg amounted to 83.5%. In addition, the “Ear Swelling (units ± SEM), increase” value in series [1] (Table 3, 20.0 mg/kg oral) was 14.25 ± 1.49 10^-4 inches.
Taken in the same sequence, the figures for `Cc1c(-c2ccc(Sc3ccccc3)cc2)nc2ccc(Cl)cc2c1C(=O)O` [Example 7] were 14.4% and 62.95 ± 3.40 10^-4 inches.
`COc1ccc2c(c1)c(CC(=O)O)c(C)n2C(=O)c1ccc(Cl)cc1` [Indomethacin, reference compound]: the IC50 in series [2] was > 1000 nM.
On to `Cc1c(-c2ccc([S+]([O-])c3ccccc3)cc2)nc2ccc(F)cc2c1C(=O)O` (centres unmarked) [Example 10], for which, in series [1] (setting [5]), the inhibition in vivo at 20 mg/kg was 22.4%. Moreover, the “Ear Swelling (units ± SEM), increase” value in series [1] (Table 3, 20.0 mg/kg oral) was 57.28 ± 2.36 10^-4 inches.
Taken in the same sequence, the figures for `Cc1ccc2nc(-c3ccc(-c4ccccc4)cc3)c(C)c(C(=O)O)c2c1` [Example 5] were 53.4% and 35.47 ± 2.31 10^-4 inches.
On the same counts, the results for `O=C(O)c1cc(-c2ccc(-c3ccccc3)cc2)nc2ccc(F)cc12` [Example 9] are 43.3% and 42.60 ± 2.68 10^-4 inches.
